Measured values reported in US20250368961A1, “Medium for producing a bile canaliculus and method for producing a bile canaliculus using the same” (INSTITUTE OF SCIENCE TOKYO, priority 2024, published 2025).

Tests used:
hepatocytes [1] = assay: Effectiveness of different K-Ras activating agents in bile canaliculi formation; format: cell-based, human; conditions: normal culture, Day 4; agent added to medium of the instant invention without OsM
Description: (§1) The frozen stock of human primary-cultured hepatocytes (PHHs) was thawed using commercially available thawing medium, and cell number was counted using trypan blue. To a 96-well plate coated with collagen I, PHHs were plated at 1.0×10^5 cells/well seeding density, using the medium of the instant invention, commercial medium A, commercial medium B, and commercial medium C such that the medium volume was 75 μL/well, and cultured at 37° C. under 5% CO2 condition. Four hours, 1 day, 2 days, and 4 days after seeding, the total amount of medium was replaced using each medium such that the medium volume was 75 μL/well, and the plate was cultured until Day 7 of culture.
Two types of media were used as controls: the medium of the instant invention without OsM (a negative control), and the medium of the instant invention (a positive control), and four more types of media were prepared based on the negative control to which a K-Ras activating agent other than OsM (IL-6, LIF, CNTF or Ras-GRF) was added (six types of media in total). Each medium was used for carrying out normal culture, and on culture Day 4 the medium was removed and 4 μmol/L CDFDA solution was added at 100 μL/well. The culture was incubated in a CO2 incubator (5% CO2, 37° C.) for 10 minutes, and observed using fluorescence microscopy.

hepatocytes [2] = assay: Effect of each medium component on bile canaliculi formation (component removal); format: cell-based, human; conditions: normal culture, Day 4; named component removed from the medium of the instant invention
Description: as §1
Eight types of media in total: the medium of the instant invention, and media prepared by removing the main six components (HGF, OsM, DEX, Frk, DMSO, S-220) from the medium of the instant invention (in some case, 2 components were removed), were prepared, and each was used for performing normal culture. Phase contrast microscopy was performed on Day 4 of culture. […] Thereafter, the culture was washed three times with HBSS (+), the medium for each condition was added at 75 μL/well, then the culture was incubated in CO2 incubator (5% CO2, 37° C.) for 10 minutes and observed by fluorescence microscopy.

Substance	level of accumulation of CDFDA relative to OsM (positive control) (hepatocytes [1])	accumulation of CDFDA in bile canaliculi (fluorescence microscopy image) (hepatocytes [2])	boundaries between cells (phase contrast microscope image) (hepatocytes [2])
IL-6: IL-6 family cytokine, K-Ras activating agent other than OsM	comparable level of accumulation of CDFDA	–	–
oncostatin M [OsM]	–	almost no accumulation of CDFDA in the bile canaliculi	boundaries between cells could hardly be observed
